For series [1], the target named is T1, mOct2 (Mus musculus, UniProt O70577).
T1 sequence (O70577 1-553): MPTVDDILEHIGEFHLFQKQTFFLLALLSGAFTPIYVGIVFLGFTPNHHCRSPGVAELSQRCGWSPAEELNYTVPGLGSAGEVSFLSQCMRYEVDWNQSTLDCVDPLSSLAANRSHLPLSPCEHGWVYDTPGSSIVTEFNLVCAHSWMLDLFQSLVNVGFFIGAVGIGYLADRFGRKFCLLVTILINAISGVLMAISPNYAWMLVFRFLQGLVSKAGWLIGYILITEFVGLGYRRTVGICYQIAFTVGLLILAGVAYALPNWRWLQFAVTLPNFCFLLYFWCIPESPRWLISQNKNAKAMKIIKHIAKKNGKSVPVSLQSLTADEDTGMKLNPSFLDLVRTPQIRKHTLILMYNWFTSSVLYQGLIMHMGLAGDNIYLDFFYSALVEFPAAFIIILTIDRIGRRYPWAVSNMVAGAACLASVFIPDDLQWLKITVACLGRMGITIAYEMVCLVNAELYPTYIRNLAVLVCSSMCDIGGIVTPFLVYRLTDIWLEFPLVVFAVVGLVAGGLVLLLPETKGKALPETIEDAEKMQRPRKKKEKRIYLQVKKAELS
As to the kind of experiment: Uptake in HEK293 cells expressing mOct2. Type of series: in vitro ADME. Particulars: HEK293, 1 μM.

The target of series [2] is T2, human ABCC4 (Homo sapiens, UniProt O15439).
T2 sequence (O15439 1-1325): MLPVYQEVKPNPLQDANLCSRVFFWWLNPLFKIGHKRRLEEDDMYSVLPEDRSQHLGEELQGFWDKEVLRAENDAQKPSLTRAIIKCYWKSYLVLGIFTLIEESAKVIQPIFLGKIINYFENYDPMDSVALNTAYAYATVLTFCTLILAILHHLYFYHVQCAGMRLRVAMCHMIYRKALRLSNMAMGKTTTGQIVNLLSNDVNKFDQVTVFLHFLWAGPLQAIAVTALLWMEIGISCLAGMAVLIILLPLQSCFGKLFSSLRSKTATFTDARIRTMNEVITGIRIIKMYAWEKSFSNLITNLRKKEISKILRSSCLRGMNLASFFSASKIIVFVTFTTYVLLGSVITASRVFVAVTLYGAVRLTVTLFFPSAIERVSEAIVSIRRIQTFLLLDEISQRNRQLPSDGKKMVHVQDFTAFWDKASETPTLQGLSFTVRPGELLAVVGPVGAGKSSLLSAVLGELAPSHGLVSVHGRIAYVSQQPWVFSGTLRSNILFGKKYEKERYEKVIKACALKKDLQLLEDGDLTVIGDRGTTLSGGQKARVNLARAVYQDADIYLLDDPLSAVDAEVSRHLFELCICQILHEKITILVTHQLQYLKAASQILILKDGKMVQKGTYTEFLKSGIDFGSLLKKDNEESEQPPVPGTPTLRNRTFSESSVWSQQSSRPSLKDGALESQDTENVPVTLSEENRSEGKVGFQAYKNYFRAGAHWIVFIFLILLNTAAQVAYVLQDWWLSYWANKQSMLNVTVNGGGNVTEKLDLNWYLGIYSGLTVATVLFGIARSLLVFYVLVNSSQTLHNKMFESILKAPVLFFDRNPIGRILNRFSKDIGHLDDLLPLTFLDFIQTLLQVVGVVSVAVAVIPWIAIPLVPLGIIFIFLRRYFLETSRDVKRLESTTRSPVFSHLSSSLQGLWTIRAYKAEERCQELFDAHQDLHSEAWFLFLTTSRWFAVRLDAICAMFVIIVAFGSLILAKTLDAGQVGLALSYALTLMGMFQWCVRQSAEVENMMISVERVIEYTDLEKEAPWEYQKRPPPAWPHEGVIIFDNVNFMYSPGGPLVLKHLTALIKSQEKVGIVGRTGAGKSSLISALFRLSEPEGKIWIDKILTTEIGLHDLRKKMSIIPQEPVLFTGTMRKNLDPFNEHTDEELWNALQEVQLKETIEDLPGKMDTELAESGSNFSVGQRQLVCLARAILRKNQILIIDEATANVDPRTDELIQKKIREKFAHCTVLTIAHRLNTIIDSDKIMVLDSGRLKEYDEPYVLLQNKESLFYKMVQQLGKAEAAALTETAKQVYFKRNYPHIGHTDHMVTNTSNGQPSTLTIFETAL
The note with it: 5 min, 1 μM.

The conditions of series [3]: cited from earlier work.
Series [4] in a line: Plasma pharmacokinetics in wildtype and Abcc4. Particulars: for clearance / Cmax / Tmax: male, C57BL/6, mouse, plasma, 10 mg/kg; for clearance: CL.
[5] abbreviates: iv, i.v. 10 mg/kg, Abcc4(−/−) mice.
The mark [6] stands for this setting: iv, i.v. 10 mg/kg, wildtype mice.
Setting [7] is: po, oral 10 mg/kg, Abcc4(−/−) mice.
The mark [8] stands for this setting: po, oral 10 mg/kg, wildtype mice.

Like-named read-outs stand apart in the source and are kept apart here.

As to `Cc1nc(Nc2ncc(C(=O)Nc3c(C)cccc3Cl)s2)cc(N2CCN(CCO)CC2)n1` [dasatinib, Dasatinib], the “intracellular accumulation on overexpression of Oct2” value in series [1] is on record as “did not alter intracellular accumulation”. Further, the “accumulation in ABCC4-overexpressing vesicles compared to control vesicles” value in series [2] stood at 3.0 fold. The “coefficient of variation in AUC” value is above 50% in series [3] (adult patients) and at most 46% in series [3] (pediatric patient population). Besides, the clearance – broadly, a measure of how efficiently the substance is removed, as volume per time – in series [4] (setting [5]) was 41.9 mL/min/kg; in series [4] (setting [6]), 49.6 mL/min/kg. In addition, the Cmax (usually the highest concentration seen after dosing) was found to be 3460 ng/mL in series [4] (setting [5]), 3390 ng/mL in series [4] (setting [6]), 48.1 ± 16.5 ng/mL in series [4] (setting [7]) and 182 ± 93.8 ng/mL in series [4] (setting [8]). The figures for the Tmax in series [4] (setting [7]) and in series [4] (setting [8]) were 2.19 ± 1.06 h and 0.306 ± 0.223 h, respectively. In addition, the Ka stood at 2.49 ± 0.92 h⁻¹ in series [4] (oral 10 mg/kg, Abcc4(−/−) mice) and 34.3 ± 6.85 h⁻¹ in series [4] (oral 10 mg/kg, wildtype mice).

Values taken from paper PMC3752901 (Clinical cancer research : an official journal of the …, 2013).
